Data from patent US11541029B2, “High penetration compositions and their applications” (Techfields Pharma Co., Ltd., priority 2008, dated 2023).
Values after ≈ are worked out from the molar mass of the structure shown. Where a name gives a salt, the structure may show the parent alone. Read-outs that look alike come from different tables or passages of the source. Non-standard residues stand in square brackets, D forms with d. *: point of attachment. Arg(NO2) = N=C(NCCC[C@H](N)C(=O)O)N[N+](=O)[O-]; OCH2CH2CH2CH3 = CCCCO*

Experiments:
[1] = system: MPTP-induced Parkinson's disease mice; assay: Anti-Parkinson's disease activity in MPTP-induced mice; conditions: mouse, in vivo
Method: Group A mice were ip injected 0.4% sodium carboxymethylcellulos (15 ml/kg per day) for 7 days. Group B and C mice were ip injected N-methyl-4-phenyl-1,2,3,6-tetrahydropyridine (MPTP, 30 mg/kg per day) for 7 days. The mice were divided into 2 groups. […] All mice were killed after the last treatment and the brain tissues were quickly freezed at −80° C. […] The contents of malondialdehyde (MDA) in the SN were measured with the thiobarbituric acid-reaction to indicate the LPO, and contents of glutathione (GSH) in the substantia nigra (SN) were based on the dithionitrobenzonic acid (DTNB) determination. The contents of GABA and Glu in the striatum and SN were shown by high performance amino acid auto-analyser.

eyelashes and hairs [2] = assay: Stimulation of hair growth and eyelash growth by HPCs of prostaglandins; type: in vivo; conditions: about 1 ml of 1% in pure water on head skin, more than 1 month
eyelashes and hairs [3] = assay: as above; type: in vivo; conditions: about 0.2 ml of 1% in pure water near the eyelashes, more than 1 month
Method: (§1) About 0.2 ml of 1% of HPC of N,N-diethylaminoethyl 11,15-dihydroxy-9-oxoprost-13-en-1-oate.HBr (the HPC of prostaglandin E1), N,N-diethylaminoethyl (Z)-7-{[(1R,2R,3R,5S)-3,5-Dihydroxy-2-[1E,3S]-3-hydroxy-5-phenyl-1-pentenyl]cyclopentyl}-5-N-ethylheptenoate.HBr(the HPC of bimatoprost), (13,14-dihydro-17-phenyl-18,19,20-trinor PGF2αN,N-diethylaminoethyl ester, N,N-diethylaminoethyl (Z)-7-[(1R,2R,3R,5S)-3,5-dihydroxy-2-[(1E,3R)-3-hydroxy-4-[(α,α,α-trifluoro-m-tolyl)oxy]-1-butenyl]cyclopentyl]-5-heptenoate.HBr, or 13,14-dihydro-15-keto-20-ethyl PGF2αN,N-diethylaminoethyl ester in pure water is applied to the skin area close to the eyelashes (0.1 ml solution for each eye).
as §1, with “1” for “0.2”, “(frontal and parietal areas) on” for “area close to”, “head skull.” for “eyelashes (0.1 ml solution for each eye).”

Hypertension patients = assay: Anti-hypertensive effect of transdermal atenolol HCl salt in patients; type: in vivo, human
Method: 20 Hypertension patents were divided to 2 groups. Group A was control group (n=10, 1 ml of water was administrated to the chest of patients once per day) and group B was atenolol treated group (n=10, 100 mg of atenolol HCl salt was administrated to the chest of patients once per day).

[4] = system: methicillin-resistant Staphylococcus aureus (MRSA); assay: Minimum inhibitory concentrations (MICs); type: cell-based
Method: Minimum inhibitory concentrations (MICs) of the antimicrobials and their HPCs were assessed according to Jennifer M. Andrews, Journal of Antimicrobial Chemotherapy 48, suppl. S1, 5-16 (2001). […] The test compounds are: 6-phenoxyacetacetamidopenicillanic acid 1-piperidineethyl ester hydrochloride (penicillin V-PEE), penicillin V, 6-(2,6-dimethoxybenzamido)penicillinic acid 2-pyrrolidinemethyl ester hydrochloride (methicillin-PME), methicillin, 7-[[(2-acetylamino-4-thiazolyl)(methoxyimino)acetyl]amino]-8-oxo-5-thia-1-azabicyclo[4.2.0]oct-2-ene-2-carboxylic acid 2-diethylaminoethyl ester hydrochloride (ceftizoxime-DEE), and ceftizoxime).

[5] = system: carrageenin-induced swelling of rat hind paw; assay: Anti-inflammatory activity, carrageenin paw swelling; type: in vivo, rats
[6] = system: obese DB/DB mice (SLAC/DB/DB); assay: Anti-obesity in obese mice (SLAC/DB/DB); type: in vivo
Method: (§2) 20 obese DB/DB mice (SLAC/DB/DB) mice (16 weeks old, 55-60 g) were divided into 2 groups. In group A, 0.1 ml of water was administered to the back of mouse (n=10) twice per day for 30 days. In Group B, 15 mg/kg of H-Val-Pro-Gly-Pro-Arg(NO2)—OCH2CH2CH2CH3.HCl in 0.2 ml of water was administered transdermally to the backs of rats (n=10) twice per day for 30 days.

[7] = system: Female Sprague Dawley (SD) rats; assay: Anti-obesity in Sprague Dawley rats; type: in vivo
Method: as §2, with “Female Sprague Dawley (SD) rats (20” for “obese DB/DB mice (SLAC/DB/DB) mice (16”, “320-345” for “55-60”, “0.2” for “0.1”, “rat” for “mouse”, “10” for “15”

[8] = system: Human breast cancer cells (BCAP-37); assay: Human breast cancer xenograft in nude mice
Method: Human breast cancer cells (BCAP-37, 2-3 mm^3 of tumor tissue was used in each mouse) were subcutaneously xenografted into nude mice (BALB, 12 groups, 7 mice each group). […] 50 μl of 5% (equal to 2.5 mg of the HPCs) diethylaminoethyl acetylsalicylate.HCl (P-1, in pure water); 1-piperidinepropyl 2[(2,6-dichlorophenyl)amino]benzene acetate.HCl (P-2, in water), 1-pyrrolidinepropyl 2-(3-benzoylphenyl) propionate.HCl (P-3, in water), 4-piperidinemethyl 2-(3-phenoxyphenyl)propionate.HCl (P-4, in water), 3-piperidinemethyl 2-(ρ-isobutylphenyl) propionate.HCl (P-5, in water), diethylaminoethyl 1-(p-chlorobenzoyl)-5-methoxy-2-methylindole 3-acetate.HCl (P-11, in water), 2-(4-morpholinyl)ethyl (Z)-5-fluoro-2-methyl-1-[(4-methylsulfinyl)phenylmethylene]-1H-indene-3-acetate.

[9] = system: lesions similar to psoriasis generated by Malassezia; assay: Anti-psoriasis activity, Malassezia-induced lesions; type: in vivo, Chinese white rabbits; conditions: HPC 5% aq. applied to the lesion areas twice per day
Method: Heavy suspensions of Malassezia [Rosenberg, E. W., et al., Mycopathologia, 72, 147-154 (1980)] were applied to the shaved skin on the backs of Chinese white rabbits (n=4×6) twice (at […]) per day for 2 weeks to generate lesions similar to psoriasis. HPCs (5%, aq.) were applied to the same areas 3 hours (10 am and 6 pm) after the application of Malassezia (7 am and 3 pm). […] HCl, diethylaminoethyl 1,8-diethyl-1,3,4,9-tetrahydropyrano-[3,4-b]indole-1-acetate.HCl, diethylaminoethyl 2-amino-3-(4-bromo-benzoyl)benzeneacetate.HCl, diethylaminoethyl 3-chloro-4-(2-propenyloxy)benzeneacetate. HCl, diethylaminoethyl 1-(4-chlorobenzoyl-5-methoxy-2-methyl-1H-indole-3-acetoxyacetate. HCl, diethylaminoethyl 4-(4-chlorophenyl)-2-phenyl-5-thiazoleacetate.HCl, and diethylaminoethyl 3-(4-chlorophenyl)-1-phenyl-1H-pyrazole-4-acetate.HCl

[10] = system: Human colon cancer cells (LS174J); assay: Human colon cancer xenograft in nude mice
Source text: Human colon cancer cells (LS174J, 2-3 mm^3 of tumor tissue was used in each mouse) were subcutaneously xenografted into nude mice (BALB).

[11] = 100 mg to the chest once per day, n=10
[12] = 15 mg/kg transdermally twice per day for 30 days
[13] = 10 mg/kg transdermally twice per day for 30 days

For NC(=O)C[S+]([O-])C(c1ccccc1)c1ccccc1 (stereo not shown) [modafinil, reference compound], the “effect on the increase of nigrostriatal Glu release induced by MPTP” value [1] was “did not change the increase of nigrostriatal Glu release induced by MPTP”.

CCN(CC)CCOC(=O)CCC/C=C\C[C@@H]1[C@@H](CC[C@@H](O)CCc2ccccc2)[C@H](O)C[C@@H]1O [(13,14-dihydro-17-phenyl-18,19,20-trinor PGF2αN,N-diethylaminoethyl ester] was tested, and the hair growth (eyelashes and hairs [2]) was “grow longer and fuller” and the eyelash growth (eyelashes and hairs [3]) was “grow longer and fuller”.

With CC(C)NCC(O)COc1ccc(CC(N)=O)cc1 (stereo not shown) [atenolol HPC, atenolol HCl salt] the side effect (Hypertension patients; 100 mg in 1 ml of pure water per day transdermally) was “without side effect of hypotention”, the “Blood Pressure (before treatment), first figure of the pair” value (Hypertension patients; [11]) was 160 ± 22 mmHg and the “Blood Pressure (before treatment), second figure of the pair” value (Hypertension patients; [11]) was 110 ± 20 mmHg. The “Blood pressure (2 weeks after treatment), first figure of the pair” value (Hypertension patients; [11]) was 128 ± 15 mmHg and the “Blood pressure (2 weeks after treatment), second figure of the pair” value (Hypertension patients; [11]) was 81 ± 12 mmHg.

CCN(CC)CCOC(=O)C1=CCSC2C(NC(=O)C(=NOC)c3csc(NC(C)=O)n3)C(=O)N12.Cl (stereo not shown) [ceftizoxime-DEE, 7-[[(2-acetylamino-4-thiazolyl)(methoxyimino)acetyl]amino]-8-oxo-5-thia-1-azabicyclo[4.2.0]oct-2-ene-2-carboxylic acid 2-diethylaminoethyl ester hydrochloride] gave an MIC ([4]; read-out: MIC) of 2.5 µg/mL.

COc1cccc(OC)c1C(=O)NC1C(=O)N2C1SC(C)(C)C2C(=O)OCC1CCCN1.Cl (stereo not shown) [methicillin-PME, 6-(2,6-dimethoxybenzamido)penicillinic acid 2-pyrrolidinemethyl ester hydrochloride] was tested, and the MIC [4] was 19 µg/mL.

For CCN(CC)CCOC(=O)C(C)c1ccc(CC(C)C)cc1.O=C(O)CC(O)(CC(=O)O)C(=O)O (stereo not shown) [diethylaminoethyl 2-(p-isobutylphenyl)propionate.citric acid], the “anti-inflammatory activity (rate of swelling) compared with ibuprofen” value ([5]; 20 mg/kg (2×10 mg) transdermally) was “much stronger than that of 100 mg/kg of ibuprofen (oral)” and the “anti-inflammatory activity (rate of swelling) compared with ibuprofen” value ([5]; 50 mg/kg orally) was “much stronger than that of 100 mg/kg of ibuprofen (oral)”.

With Br.CCN(CC)CCOC(=O)CCC/C=C\C[C@@H]1[C@@H](/C=C/[C@@H](O)COc2cccc(C(F)(F)F)c2)[C@H](O)C[C@@H]1O [N,N-diethylaminoethyl (Z)-7-[(1R,2R,3R,5S)-3,5-dihydroxy-2-[(1E,3R)-3-hydroxy-4-[(α,α,α-trifluoro-m-tolyl)oxy]-1-butenyl]cyclopentyl]-5-heptenoate.HBr] the hair growth (eyelashes and hairs [2]) was “grow longer and fuller” and the eyelash growth (eyelashes and hairs [3]) was “grow longer and fuller”.

Br.CCN(CC)CCOC(=O)CCC/C=C\C[C@@H]1[C@@H](/C=C/[C@@H](O)CCc2ccccc2)[C@H](O)C[C@@H]1O [HPC of bimatoprost, N,N-diethylaminoethyl (Z)-7-{[(1R,2R,3R,5S)-3,5-Dihydroxy-2-[1E,3S]-3-hydroxy-5-phenyl-1-pentenyl]cyclopentyl}-5-N-ethylheptenoate.HBr] was tested, and the hair growth (eyelashes and hairs [2]) was “grow longer and fuller” and the eyelash growth (eyelashes and hairs [3]) was “grow longer and fuller”.

In the case of CO/N=C(\C(=O)N[C@@H]1C(=O)N2C(C(=O)O)=CCS[C@H]12)c1csc(N)n1 [ceftizoxime, reference compound], the MIC ([4]; read-out: MIC) is reported as 986 µg/mL (≈ 2.57 mM).

Br.CCCCCC(O)C=C[C@H]1C(O)CC(=O)[C@@H]1CCCCCCC(=O)OCCN(CC)CC (stereo partly shown) [HPC of prostaglandin E1, N,N-diethylaminoethyl 11,15-dihydroxy-9-oxoprost-13-en-1-oate.HBr] was tested, and the hair growth (eyelashes and hairs [2]) was “grow longer and fuller” and the eyelash growth (eyelashes and hairs [3]) was “grow longer and fuller”.

In the case of CCCCCCCC(=O)CC[C@@H]1[C@@H](C/C=C\CCCC(=O)OCCN(CC)CC)[C@@H](O)C[C@H]1O [13,14-dihydro-15-keto-20-ethyl PGF2αN,N-diethylaminoethyl ester], the hair growth (eyelashes and hairs [2]) is reported as “grow longer and fuller” and the eyelash growth (eyelashes and hairs [3]) is reported as “grow longer and fuller”.

For “H-Val-Pro-Gly-Pro-Arg(NO2)—OCH2CH2CH2CH3.HCl (H-VPGP[Arg(NO2)]-OCH2CH2CH2CH3; also: HCl salt)”, the “Food intake (per day & per rat)” value [6, 12] was 3.9 ± 0.3, the “Weight (Day1)” value [6, 12] was 57.1 ± 1.8 g and the “Weight (Day 30)” value [6, 12] was 53.4 ± 4.7 g. For the same compound, the “control group heavier than the peptide treated group” value ([6]; mouse, in vivo) was “about 26%”, the “Food intake (per day & per rat)” value [7, 13] was 17.5 ± 1.2 and the “Weight (Day1)” value [7, 13] was 333.5 ± 4.2 g. For the same compound, the “Weight (Day 30)” value [7, 13] was 301.4 ± 3.7 g and the “control group heavier than the peptide treated group” value ([7]; rat, in vivo) was “about 17%”.

Compound CC1(C)S[C@@H]2[C@H](NC(=O)COc3ccccc3)C(=O)N2[C@H]1C(=O)O [penicillin V, reference compound] has an MIC [4] of 1824 µg/mL (≈ 5.21 mM).

Compound CC1(C)SC2C(NC(=O)COc3ccccc3)C(=O)N2C1C(=O)OCCN1CCCCC1.Cl (stereo not shown) [penicillin V-PEE, 6-phenoxyacetacetamidopenicillanic acid 1-piperidineethyl ester hydrochloride] has an MIC [4] of 12 µg/mL.

For COc1cccc(OC)c1C(=O)N[C@@H]1C(=O)N2[C@@H]1SC(C)(C)[C@@H]2C(=O)O [methicillin, reference compound], the MIC ([4]; read-out: MIC) was 1160 µg/mL (≈ 3.04 mM).

CC(C)Cc1ccc(C(C)C(=O)OCC2CCCNC2)cc1.Cl (stereo not shown) [P-5, 3-piperidinemethyl 2-(ρ-isobutylphenyl) propionate.HCl] was tested, and the “tumor Size at day 42” value ([8]; 50 μl of 5% topically every 8 hours) was 180 ± 55 mm^3, the “Weight of mice at day 42” value ([8]; in vivo) was 23 ± 2 and the “time until lesions healed after the application” value [9] was 10 days. The “tumor Size at day 30” value ([10]; about 50 μl of 5% topically every 12 hours) was 520 ± 140 mm^3 and the “Weight of mice at day 30” value ([10]; in vivo) was 23 ± 2.
